Test results: article PMC11791039, “A split intein and split luciferase-coupled system for detecting protein-protein interactions” (Molecular Systems Biology, 2024)
Several values for one entry are separate records, joined by “and”; a condition that tells them apart may be missing. Identical values can stand only once. Residues, ends and D or L forms follow the SMILES beside them. *: point of attachment. Cbz = O=C(OCc1ccccc1)*

Assays:
Format in all cases: cell-based
EGFR(WT)/SHC1 [1] = biological target: T1, EGFR(WT)/SHC1 (Homo sapiens, UniProt P00533); assay: SIMPL2 assay EGFR(WT)/SHC1; details: replicates 1-4;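 note: 0% is no doxycycline or compound and 100% is doxycycline without compound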
T1 construct: β10-IN (tNLuc β10 peptide + GP41-1 split intein N fragment) (C); V5; expressed in transfected cells

EGFR(L858R)/SHC1 [2] = biological target: T2, EGFR(L858R)/SHC1 (Homo sapiens, UniProt P00533, L858R); assay: SIMPL2 assay EGFR(L858R)/SHC1; details: replicates 1-4
T2 construct: β10-IN (tNLuc β10 peptide + GP41-1 split intein N fragment) (C); V5; expressed in transfected cells

EGFR(WT)/SHC1 [3] = biological target: T1, EGFR(WT)/SHC1; assay: Western blot of EGFR(WT)-SHC1 splicing; details: inhibitor 100 nM, 16 h
EGFR(L858R)/SHC1 [4] = biological target: T2, EGFR(L858R)/SHC1; assay: Western blot of EGFR(L858R)-SHC1 splicing; details: inhibitor 100 nM, 16 h
control = biological target: T3, control (Homo sapiens, UniProt P01116, G12C); assay: SIMPL2 assay, control of Fig. 3B-D; details: replicates 1-4
T3 construct: IC-β9 (GP41-1 split intein C fragment + tNLuc β9 peptide) (N); FLAG; expressed in transfected cells

BRD4/CRBN interaction = biological target: T4, BRD4/CRBN interaction (Homo sapiens, UniProt O60885+Q96SW2); assay: SIMPL2 assay CRBN/BRD4 (PROTAC); details: MG132 1 μM, ARV-825 3 h
T4 construct: β10-IN (tNLuc β10 peptide + GP41-1 split intein N fragment) (N); V5; IC-β9 (GP41-1 split intein C fragment + tNLuc β9 peptide) (N); FLAG; expressed in transfected cells
T4 sequence (Q96SW2 whole entry, the tested form may be a part): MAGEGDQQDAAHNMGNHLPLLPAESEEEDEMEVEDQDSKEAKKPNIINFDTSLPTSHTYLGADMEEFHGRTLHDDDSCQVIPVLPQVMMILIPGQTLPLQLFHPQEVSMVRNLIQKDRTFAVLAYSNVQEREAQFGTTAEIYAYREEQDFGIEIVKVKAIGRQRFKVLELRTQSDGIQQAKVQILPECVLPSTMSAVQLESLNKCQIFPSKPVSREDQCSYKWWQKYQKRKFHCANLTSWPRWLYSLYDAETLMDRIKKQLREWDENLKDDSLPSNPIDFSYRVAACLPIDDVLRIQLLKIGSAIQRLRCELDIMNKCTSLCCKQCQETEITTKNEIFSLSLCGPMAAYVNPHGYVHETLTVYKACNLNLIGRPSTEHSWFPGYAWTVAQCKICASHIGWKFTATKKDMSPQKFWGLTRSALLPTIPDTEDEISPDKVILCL
T4 sequence (Q16531 whole entry, further chain, the tested form may be a part): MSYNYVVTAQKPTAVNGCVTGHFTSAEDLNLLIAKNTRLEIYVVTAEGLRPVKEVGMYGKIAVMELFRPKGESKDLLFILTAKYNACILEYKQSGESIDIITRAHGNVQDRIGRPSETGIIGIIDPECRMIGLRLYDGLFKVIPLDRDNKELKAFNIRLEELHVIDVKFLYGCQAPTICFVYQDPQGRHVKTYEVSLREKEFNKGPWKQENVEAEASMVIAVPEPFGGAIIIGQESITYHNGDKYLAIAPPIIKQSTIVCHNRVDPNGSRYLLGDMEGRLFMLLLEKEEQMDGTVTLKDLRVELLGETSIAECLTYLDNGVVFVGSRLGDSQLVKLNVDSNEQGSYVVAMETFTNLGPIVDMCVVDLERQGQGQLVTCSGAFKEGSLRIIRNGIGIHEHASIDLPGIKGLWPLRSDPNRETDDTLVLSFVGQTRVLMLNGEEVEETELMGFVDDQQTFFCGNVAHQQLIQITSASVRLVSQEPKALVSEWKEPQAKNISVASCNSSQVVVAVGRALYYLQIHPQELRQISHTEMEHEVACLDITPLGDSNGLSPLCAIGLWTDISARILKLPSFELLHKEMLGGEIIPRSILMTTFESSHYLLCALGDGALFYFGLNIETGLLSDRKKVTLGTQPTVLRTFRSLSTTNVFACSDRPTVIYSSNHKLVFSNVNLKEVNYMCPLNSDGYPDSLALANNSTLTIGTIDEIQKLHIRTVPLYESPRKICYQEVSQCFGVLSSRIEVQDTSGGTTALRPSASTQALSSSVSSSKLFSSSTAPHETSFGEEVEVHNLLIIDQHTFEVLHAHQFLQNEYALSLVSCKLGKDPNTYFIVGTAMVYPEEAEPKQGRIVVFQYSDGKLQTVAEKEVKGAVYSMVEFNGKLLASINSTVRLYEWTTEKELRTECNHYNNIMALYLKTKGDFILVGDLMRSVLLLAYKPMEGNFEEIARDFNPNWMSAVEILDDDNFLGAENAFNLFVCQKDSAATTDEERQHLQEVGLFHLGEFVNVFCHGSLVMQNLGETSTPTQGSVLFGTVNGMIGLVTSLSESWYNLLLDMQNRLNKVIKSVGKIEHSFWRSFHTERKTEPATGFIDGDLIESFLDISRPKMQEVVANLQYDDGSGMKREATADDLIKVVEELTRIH

T3 sequence (P01116 1-185 isoform P01116-2 G12C limits assumed): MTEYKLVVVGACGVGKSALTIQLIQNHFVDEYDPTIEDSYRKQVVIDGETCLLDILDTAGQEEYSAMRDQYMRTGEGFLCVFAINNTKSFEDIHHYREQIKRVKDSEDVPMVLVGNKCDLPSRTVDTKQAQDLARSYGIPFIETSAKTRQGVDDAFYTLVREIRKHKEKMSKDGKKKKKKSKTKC

SMILES: COc1cc2ncnc(Nc3cccc(Cl)c3)c2cc1OC [AG1478]
- SIMPL2 signal, WT (Fig. 3B) (EGFR(WT)/SHC1 [1]; AG1478 6.4e-6 uM): 102.427 and 84.7059 and 104.371 and 106.871
- SIMPL2 signal, WT (Fig. 3B) (EGFR(WT)/SHC1 [1]; AG1478 3.2e-5 uM): 77.5953 and 99.0938 and 89.9278 and 95.7607
- SIMPL2 signal, WT (Fig. 3B) (EGFR(WT)/SHC1 [1]; AG1478 0.00016 uM): 73.3734 and 100.927 and 94.8163 and 93.2609
- SIMPL2 signal, WT (Fig. 3B) (EGFR(WT)/SHC1 [1]; AG1478 0.0008 uM): 88.6501 and 85.7058 and 98.1494 and 104.871
- SIMPL2 signal, WT (Fig. 3B) (EGFR(WT)/SHC1 [1]; AG1478 0.004 uM): 74.54 and 81.3728 and 67.2627 and 74.6511
- SIMPL2 signal, WT (Fig. 3B) (EGFR(WT)/SHC1 [1]; AG1478 0.02 uM): 70.0958 and 71.7624 and 65.6517 and 61.8742
- SIMPL2 signal, WT (Fig. 3B) (EGFR(WT)/SHC1 [1]; AG1478 0.1 uM): 65.485 and 59.9854 and 59.7632 and 57.8189
- SIMPL2 signal, WT (Fig. 3B) (EGFR(WT)/SHC1 [1]; AG1478 0.5 uM): 29.8764 and 30.6541 and 19.6549 and 21.0437
- SIMPL2 signal, L858R (Fig. 3B) (EGFR(L858R)/SHC1 [2]; AG1478 6.4e-6 uM): 91.6588 and 97.6255 and 114.285 and 112.912
- SIMPL2 signal, L858R (Fig. 3B) (EGFR(L858R)/SHC1 [2]; AG1478 3.2e-5 uM): 89.0187 and 76.3196 and 106.708 and 96.4903
- SIMPL2 signal, L858R (Fig. 3B) (EGFR(L858R)/SHC1 [2]; AG1478 0.00016 uM): 80.0422 and 76.3461 and 104.596 and 91.474
- SIMPL2 signal, L858R (Fig. 3B) (EGFR(L858R)/SHC1 [2]; AG1478 0.0008 uM): 78.2733 and 74.7356 and 79.963 and 75.2372
- SIMPL2 signal, L858R (Fig. 3B) (EGFR(L858R)/SHC1 [2]; AG1478 0.004 uM): 44.1628 and 44.3476 and 45.9581 and 41.1531
- SIMPL2 signal, L858R (Fig. 3B) (EGFR(L858R)/SHC1 [2]; AG1478 0.02 uM): 13.9069 and 29.2725 and 26.9756 and 25.1011
- SIMPL2 signal, L858R (Fig. 3B) (EGFR(L858R)/SHC1 [2]; AG1478 0.1 uM): 16.4414 and 17.2863 and 10.8707 and 9.471
- SIMPL2 signal, L858R (Fig. 3B) (EGFR(L858R)/SHC1 [2]; AG1478 0.5 uM): 3.505 and 4.482 and 4.93 and 3.98
- splicing between EGFR(WT) and SHC1 (western blot) (EGFR(WT)/SHC1 [3]): reduced or abolished
- splicing between EGFR(L858R) and SHC1 (western blot) (EGFR(L858R)/SHC1 [4]): reduced or abolished
- SIMPL2 signal, control (Fig. 3B) (control; AG1478 6.4e-6 uM): 78.4402 and 101.308 and 94.2905 and 84.6604
- SIMPL2 signal, control (Fig. 3B) (control; AG1478 3.2e-5 uM): 100.905 and 96.8875 and 97.961 and 100.282
- SIMPL2 signal, control (Fig. 3B) (control; AG1478 0.00016 uM): 91.8672 and 101.363 and 100.305 and 106.707
- SIMPL2 signal, control (Fig. 3B) (control; AG1478 0.0008 uM): 94.4089 and 99.0424 and 101.553 and 109.943
- SIMPL2 signal, control (Fig. 3B) (control; AG1478 0.004 uM): 91.5435 and 102.468 and 100.85 and 97.0453
- SIMPL2 signal, control (Fig. 3B) (control; AG1478 0.02 uM): 77.4062 and 87.6599 and 89.9806 (2×)
- SIMPL2 signal, control (Fig. 3B) (control; AG1478 0.1 uM): 82.8606 and 100.092 and 105.918 and 87.8651
- SIMPL2 signal, control (Fig. 3B) (control; AG1478 0.5 uM): 102.547 and 94.4247 and 100.724 and 111.159

SMILES: CC(C)C[C@@H](C=O)NC(=O)[C@H](CC(C)C)NC(=O)[C@H](CC(C)C)NC(=O)OCc1ccccc1 [MG132] (Cbz-Leu-Leu-Leu-aldehyde)
- effect of MG132 co-treatment on ARV-825 SIMPL2 signals (BRD4/CRBN interaction): profoundly enhanced
